Laboratory results published in US20040259875A1, “Amine derivatives” (priority 2001, published 2004).

melting point | SMILES
228 to 232 °C | O=C(Nc1cccc(-c2ccccc2Cl)c1)Nc1c(Cl)cc(Cl)c2ccc(O)cc12 [Example 4-3]
188 °C | O=C(Nc1ccc(N2CCOCC2)c(Cl)c1)Nc1c(Cl)cc(Cl)c2ccc([O-])cc12.[K+]
300 °C | O=C(Nc1cccc(Cl)c1Cl)Nc1c(Cl)cc(Cl)c2ccc(O)cc12 [Example 1-39]
> 260 °C | O=C(Nc1cccc(Cl)c1)Nc1c(Cl)cc(Cl)c2ccc(O)cc12 [Example 1-1, N-(3-Chlorophenyl)-N′-(2,4-dichloro-7-hydroxy-1-naphthyl)urea]
240 °C (dec.) | Cc1cc(NC(=O)Nc2c(Cl)cc(Cl)c3ccc(O)cc23)ccc1Cl [Example 4-39]
253 to 255 °C | O=C(Nc1ccc(Cl)cc1)Nc1c(Cl)cc(Cl)c2ccc(O)cc12 [Example 1-21]
174 °C (dec.) | O=C(Nc1cccc(-c2ccc(Cl)c(F)c2)c1)Nc1c(Cl)cc(Cl)c2ccc([O-])cc12.[K+]
210 °C | O=C(Nc1ccc(Cl)c(C(F)(F)F)c1)Nc1c(Cl)cc(CO)c2ccc(O)cc12 [Example 1-82]
226 °C (dec.) | O=C(Nc1cccc(Oc2ccccc2)c1)Nc1c(Cl)cc(Cl)c2ccc(O)cc12 [Example 4-15]
230 °C (dec.) | O=C(Nc1ccc2c(c1)CCCC2=O)Nc1c(Cl)cc(Cl)c2ccc(O)cc12 [Example 4-40]
298 °C (dec.) | O=C(Nc1ccc(F)cc1Cl)Nc1c(Cl)cc(Cl)c2ccc(O)cc12 [Example 4-16]
236 °C (dec.) | O=C(Nc1ccc2c(c1)C(=O)c1ccccc1-2)Nc1c(Cl)cc(Cl)c2ccc(O)cc12 [Example 4-36]
234 to 236 °C | CCOC(=O)c1cccc(NC(=O)Nc2c(Cl)cc(Cl)c3ccc(O)cc23)c1 [Example 1-12]
254 °C | Cc1cc(Cl)c(NC(=O)Nc2ccc(Cl)c(C(F)(F)F)c2)c2cc(O)ccc12 [Example 1-83]
> 300 °C | O=C(Nc1cccc(F)c1)Nc1c(Cl)cc(Cl)c2ccc(O)cc12 [Example 1-40]
206 °C | CC(=O)Oc1ccc2c(Cl)cc(Cl)c(NC(=O)Nc3ccc(N4CCOCC4)c(Cl)c3)c2c1 [Example 3-13]
226 °C (dec.) | CC(=O)Oc1ccc2c(Cl)cc(Cl)c(NC(=O)Nc3ccc(F)c(F)c3)c2c1 [Example 3-14]

melting point | SMILES
223 to 226 °C | COc1cccc(NC(=O)Nc2c(Cl)cc(Cl)c3ccc(O)cc23)c1 [Example 1-11]
200 °C | O=C(Nc1ccc2c(c1)C(=O)c1ccccc1-2)Nc1c(Cl)cc(Cl)c2ccc([O-])cc12.[K+]
268 to 271 °C | O=C(Nc1ccc(C(F)(F)F)cc1)Nc1c(Cl)cc(Cl)c2ccc(O)cc12 [Example 1-23]
255 °C (dec.) | O=C(Nc1ccc(Cl)c(C(F)(F)F)c1)Nc1c(Cl)cc(Cl)c2ccc(O)cc12 [Example 1-9]
179 °C (dec.) | O=C(Nc1ccc(C(F)(F)F)cc1)Nc1c(Cl)cc(Cl)c2ccc([O-])cc12.[K+]
241 °C | CCCc1ccc(NC(=O)Nc2c(Cl)cc(Cl)c3ccc(O)cc23)cc1 [Example 4-1, N-(2,4-Dichloro-7-hydroxy-1-naphthyl)-N′-(4-propylphenyl)urea]
261 to 264 °C (dec.) | Cc1ccc(NC(=O)Nc2c(Cl)cc(Cl)c3ccc(O)cc23)cc1F [Example 4-42]
260 °C | CC(=O)Oc1ccc2c(Cl)cc(Cl)c(NC(=O)Nc3cccc(-c4ccc(C)c(Cl)c4)c3)c2c1 [Example 3-4]
206 °C (dec.) | COc1cccc(-c2cccc(NC(=O)Nc3c(Cl)cc(Cl)c4ccc([O-])cc34)c2)c1.[K+]
263 to 265 °C | O=C(Nc1ccc2ccccc2c1)Nc1c(Cl)cc(Cl)c2ccc(O)cc12 [Example 1-14]
239 °C (dec.) | Cc1ccc(NC(=O)Nc2c(Cl)cc(Cl)c3ccc(O)cc23)cc1C [Example 4-12]
250 to 252 °C (dec.) | Cc1cc(NC(=O)Nc2c(Cl)cc(Cl)c3ccc(O)cc23)ccc1F [Example 4-45]
235 to 238 °C (dec.) | COc1ccc(NC(=O)Nc2c(Cl)cc(Cl)c3ccc(O)cc23)cc1F [Example 4-41]
> 300 °C | O=C(Nc1cc(C(F)(F)F)ccc1Cl)Nc1c(Cl)cc(Cl)c2ccc(O)cc12 [Example 1-41]
230 °C | O=C(Nc1ccc(Oc2ccc(Cl)cc2)cc1)Nc1c(Cl)cc(Cl)c2ccc(O)cc12 [Example 4-9]
192 °C (dec.) | CN(C)c1ccc(NC(=O)Nc2c(Cl)cc(Cl)c3ccc(O)cc23)cc1 [Example 1-32]
195 °C | O=C(Nc1cccc2c1C(=O)c1ccccc1-2)Nc1c(Cl)cc(Cl)c2ccc([O-])cc12.[K+]

The remaining lines, values behind:

SMILES | melting point
O=C(Nc1cccc(-c2ccc(C(=O)O)cc2)c1)Nc1c(Cl)cc(Cl)c2ccc(O)cc12 [Example 4-11] | 247 °C (dec.)
CC(=O)Oc1ccc2c(Cl)cc(Cl)c(NC(=O)Nc3ccc4c(c3)C(=O)c3ccccc3-4)c2c1 [Example 3-10] | 213 °C (dec.)
CN(C(=O)NCc1ccc(Br)cc1)c1cccc2ccc(O)cc12 [Example 1-78] | 194 °C
CC(=O)Oc1ccc2c(Cl)cc(Cl)c(NC(=O)Nc3cccc(-c4ccccc4Cl)c3)c2c1 [Example 3-1, 5,7-Dichloro-8-({[(2′-chloro-1,1′-biphenyl-3-yl)amino]carbonyl}amino)-2-naphthyl acetate] | 180 °C
CC(=O)c1ccc(-c2cccc(NC(=O)Nc3c(Cl)cc(Cl)c4ccc(O)cc34)c2)cc1 [Example 4-10] | 253 °C
CN(C(=O)Nc1ccc2ccccc2c1)c1cccc2ccc(O)cc12 [Example 1-79] | 215 °C
O=C(Nc1cccc(C(F)(F)F)c1)Nc1c(Br)cc(Br)c2ccc(O)cc12 [Example 1-27] | 233 to 236 °C
O=C(Nc1cccc(Cl)c1)Nc1c(Br)cc(Br)c2ccc(O)cc12 [Example 1-3] | 242 to 243 °C
O=C(Nc1ccc(Cl)cc1)Nc1c(Br)cc(Br)c2ccc(O)cc12 [Example 1-26] | 229 to 233 °C
O=C(Nc1ccc(Cl)c(C(F)(F)F)c1)Nc1cccc2ccc(NCc3ccccc3)cc12 [Example 1-75] | 193 to 194 °C
CC(=O)Oc1ccc2c(Cl)cc(Cl)c(NC(=O)Nc3cnc4ccccc4c3)c2c1 [Example 3-16] | 205 °C (dec.)
CS(=O)(=O)Nc1ccc2cccc(NC(=O)Nc3ccc(Cl)c(C(F)(F)F)c3)c2c1 [Example 10-1, N-{8-[({[4-Chloro-3-(trifluoromethyl)phenyl]amino}carbonyl)amino]-2-naphthyl}methanesulfonamide] | 225 to 226 °C
O=C(NCc1ccc(Br)cc1)Nc1c(Cl)ccc2ccc(O)cc12 [Example 1-6] | 226 to 229 °C
Cc1ccc(NC(=O)Nc2ccc(Cl)c(C(F)(F)F)c2)c2cc(O)ccc12 [Example 1-80] | 237 to 238 °C
O=C(Nc1ccc(Cl)c(C(F)(F)F)c1)Nc1c(Br)cc(Br)c2ccc(O)cc12 [Example 1-4] | 242 to 243 °C
CNc1ccc2cccc(NC(=O)Nc3ccc(Cl)c(C(F)(F)F)c3)c2c1 [Example 1-74] | 218 to 219 °C
O=C(Nc1ccc(F)c(C(F)(F)F)c1)Nc1ccc(Br)c2ccc(O)cc12 [Example 1-73] | 215 °C
O=C(Nc1c(Cl)cc(Cl)c2ccc(O)cc12)NC1CCCc2ccccc21 (centres unmarked) [Example 4-13] | 238 °C (dec.)
CC1COC(c2cccc(NC(=O)Nc3c(Cl)ccc4ccc(O)cc34)c2)=N1 (centres unmarked) [Example 5-2] | 162 °C (dec.)

SMILES | melting point
Nc1ccc2cccc(NC(=O)Nc3ccc(Cl)c(C(F)(F)F)c3)c2c1 [Example 1-76, N-(7-amino-naphthalen-1-yl)-N′-(4-chloro-3-trifluoromethyl-phenyl)urea] | 232 to 234 °C
CC(=O)Oc1ccc2c(Cl)cc(Cl)c(NC(=O)Nc3cccc(-c4ccc(Cl)c(F)c4)c3)c2c1 [Example 3-5] | 287 °C
O=C(Nc1ccc(Cc2ccccc2)cc1)Nc1c(Cl)cc(Cl)c2ccc(O)cc12 [Example 4-14] | 230 °C (dec.)
CC(C)(C)c1cc(NC(=O)Nc2c(Br)cc(Br)c3ccc(O)cc23)no1 [Example 5-1, N-(5-tert-Butyl-3-isoxazolyl)-N′-(2,4-dibromo-7-hydroxy-1-naphthyl)urea] | 214.5 °C
O=C(Nc1cccc2c1C(=O)c1ccccc1-2)Nc1c(Cl)cc(Cl)c2ccc(O)cc12 [Example 4-37] | > 250 °C
O=C(NCc1cccc(F)c1)Nc1c(Cl)cc(Cl)c2ccc(O)cc12 [Example 1-30] | 225 to 228 °C
O=C(Nc1ccc(Cl)c(C(F)(F)F)c1)Nc1cccc2ccc(OC(=O)c3ccccc3)cc12 [Example 1-165] | 220 to 222 °C
O=C(Nc1ccc(Cl)c(C(F)(F)F)c1)Nc1c(Cl)ccc2ccc(O)cc12 [Example 1-8] | 260 °C (dec.)
COc1cccc(NC(=O)Nc2c(Br)cc(Br)c3ccc(O)cc23)c1 [Example 1-16] | 213 to 216 °C
O=C(Nc1ccc(F)cc1)Nc1c(Br)cc(Br)c2ccc(O)cc12 [Example 1-25] | 222 to 225 °C
O=C(NCc1cccc(F)c1)Nc1c(Br)cc(Br)c2ccc(O)cc12 [Example 1-33] | 215 to 218 °C
COc1cccc(-c2cccc(NC(=O)Nc3c(Cl)cc(Cl)c4ccc(O)cc34)c2)c1 [Example 4-17] | 246 °C (dec.)
CC(=O)Oc1ccc2c(Br)cc(Br)c(NC(=O)Nc3cccc(-c4ccccc4)c3)c2c1 [Example 3-2] | 235 °C (dec.)
C=CCOc1ccc2cccc(NC(=O)Nc3ccc(Cl)c(C(F)(F)F)c3)c2c1 [Example 1-164] | 183 to 184 °C
CCOC(=O)c1cccc(NC(=O)Nc2c(Br)cc(Br)c3ccc(O)cc23)c1 [Example 1-17] | 193 to 196 °C
COc1ccccc1NC(=O)Nc1c(Br)cc(Br)c2ccc(O)cc12 [Example 1-15] | 228 to 230 °C
O=C(Nc1cccc(Cl)c1)Nc1cccc2ccc(OC(=O)c3ccccc3)cc12 [Example 1-166] | 214 to 215 °C
O=C(Nc1cccc(Cl)c1)Nc1c(Cl)ccc2ccc(O)cc12 [Example 1-2] | 242 to 243 °C
